In ChEMBL document CHEMBL5233211, “Progress in PD-1/PD-L1 pathway inhibitors: From biomacromolecules to small molecules” (Eur J Med Chem, 2020):
pEC50, pIC50, pKd: −log10 of the molar value. Numbered stars: 1 amine (or outer) side, 2 acyl side, 3 side chain; on linkers, the order of the positions; unused ones are H or OH. Bridge positions count the residues as written; N and C are the ends. Square brackets hold non-standard residues; d marks the D form. Peptide text beside a SMILES is read from it. ξ: configuration not given here. X1 = O=C(C(CO)NN[*:1])[*:2]; ξY = NC(Cc1ccc(O)cc1)C(=O)O; ξQ = NC(=O)CCC(N)C(=O)O; ξN = NC(=O)CC(N)C(=O)O

Legend:
[1] = target: T1, Programmed cell death protein 1/Programmed cell death 1 ligand 1 (Homo sapiens, UniProt Q15116+Q9NZQ7); assay: Inhibition of recombinant human PD-1/PD-L1 interaction relative to control; type: protein-complex assay; settings: concentration not given here
[2] = target: T1, Programmed cell death protein 1/Programmed cell death 1 ligand 1; assay: Inhibition of human PD-1/PD-L1 interaction; type: protein-complex assay
[3] = Binding affinity to human PD-1
[4] = target: Programmed cell death 1 ligand 1 (Mus musculus, UniProt Q9EP73); assay: Inhibition of PD-L1 in mouse splenocytes assessed as increase in INFgamma release; type: cell-based, Splenocyte
[5] = target: T1, Programmed cell death protein 1/Programmed cell death 1 ligand 1; assay: Inhibition of PD-1/PD-L1 interaction in human MDA-MB-231 cells assessed as increase in mouse splenocytes proliferation; type: cell-based; set-up: concentration or dose not given beside the values
[6] = Induction of mouse splenocytes proliferation at 100 nM; type: functional, Splenocyte
[7] = target: Programmed cell death 1 ligand 1 (Homo sapiens, UniProt Q9NZQ7); assay: Inhibition of PD-L1 in human PBMCs assessed as increase in INFgamma production; type: cell-based, PBMC
[8] = target: T2, Programmed cell death 1 ligand 2 (Homo sapiens, UniProt Q9BQ51); assay: Inhibition of PD-L2 in human PBMCs assessed as increase in INFgamma production; type: cell-based, PBMC
T2 sequence (Q9BQ51 whole entry): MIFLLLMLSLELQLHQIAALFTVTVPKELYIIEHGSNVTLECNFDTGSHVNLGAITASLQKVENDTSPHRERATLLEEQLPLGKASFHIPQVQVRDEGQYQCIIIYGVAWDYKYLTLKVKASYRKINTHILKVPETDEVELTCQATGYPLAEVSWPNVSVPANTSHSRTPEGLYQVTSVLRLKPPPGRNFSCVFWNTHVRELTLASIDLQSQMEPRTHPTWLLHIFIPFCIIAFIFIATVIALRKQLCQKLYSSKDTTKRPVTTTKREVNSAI

[9] = Inhibition of VISTA/PD-1 interaction in human PBMCs assessed as increase in INFgamma production; type: cell-based; settings: PBMC
[10] = target: T3, Programmed cell death 1 ligand 2 (Mus musculus, UniProt Q9WUL5); assay: Inhibition of PD-L2 in mouse splenocytes assessed as increase in INFgamma production; type: cell-based, Splenocyte
T3 sequence (Q9WUL5 whole entry): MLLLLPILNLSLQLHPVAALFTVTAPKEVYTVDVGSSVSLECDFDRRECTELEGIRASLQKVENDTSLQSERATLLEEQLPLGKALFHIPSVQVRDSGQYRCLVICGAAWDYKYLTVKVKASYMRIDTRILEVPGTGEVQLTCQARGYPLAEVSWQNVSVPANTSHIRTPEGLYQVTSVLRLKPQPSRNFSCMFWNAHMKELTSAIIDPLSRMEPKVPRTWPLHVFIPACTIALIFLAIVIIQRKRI

CT26 = assay: Antitumor activity against mouse CT26 cells implanted in mouse at 3 mg/kg administered for 25 days; type: functional; settings: time 25 day

T1 sequence (Q15116 whole entry): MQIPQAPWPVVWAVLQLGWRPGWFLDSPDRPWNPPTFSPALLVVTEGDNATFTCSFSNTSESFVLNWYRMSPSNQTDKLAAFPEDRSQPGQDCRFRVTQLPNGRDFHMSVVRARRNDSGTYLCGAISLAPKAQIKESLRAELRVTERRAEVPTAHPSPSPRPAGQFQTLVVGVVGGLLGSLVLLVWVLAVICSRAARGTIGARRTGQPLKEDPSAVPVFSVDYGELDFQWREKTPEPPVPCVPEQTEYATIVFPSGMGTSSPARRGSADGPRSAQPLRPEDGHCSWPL
T1 sequence (Q9NZQ7 whole entry): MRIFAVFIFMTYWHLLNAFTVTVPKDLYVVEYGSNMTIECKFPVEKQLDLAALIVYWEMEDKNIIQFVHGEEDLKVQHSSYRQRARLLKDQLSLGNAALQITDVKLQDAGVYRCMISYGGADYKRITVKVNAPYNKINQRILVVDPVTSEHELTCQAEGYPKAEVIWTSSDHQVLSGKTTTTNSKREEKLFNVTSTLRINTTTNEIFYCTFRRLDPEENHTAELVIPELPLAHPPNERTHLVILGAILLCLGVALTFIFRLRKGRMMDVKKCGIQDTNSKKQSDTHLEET
Chain of Programmed cell death 1 ligand 1 (Mus musculus, UniProt Q9EP73) (Q9EP73 whole entry): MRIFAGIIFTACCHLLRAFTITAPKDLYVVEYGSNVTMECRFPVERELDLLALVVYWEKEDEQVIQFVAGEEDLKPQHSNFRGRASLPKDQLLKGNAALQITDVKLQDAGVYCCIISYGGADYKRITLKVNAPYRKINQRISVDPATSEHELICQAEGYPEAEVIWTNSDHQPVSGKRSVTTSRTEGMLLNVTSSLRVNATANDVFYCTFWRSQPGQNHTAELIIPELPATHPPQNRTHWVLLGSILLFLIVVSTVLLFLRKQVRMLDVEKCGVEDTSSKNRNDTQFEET
Chain of Programmed cell death 1 ligand 1 (Homo sapiens, UniProt Q9NZQ7) (Q9NZQ7 whole entry): as the sequence (Q9NZQ7 whole entry) above

CCCCN(CCCC)CCOc1cccc(OC(=O)N(C)C)c1
inhibition [1]: 41.9%

Cc1c(-c2nc3cc(CN4CC[C@@](C)(C(=O)O)C4)cc(C#N)c3o2)cccc1-c1cccc(-c2nc3c(s2)CN(C(=O)CN(C)C(C)C)C3)c1C
pIC50 [2]: > 8.00

Cc1c(Nc2nccc3cc(CN4CC[C@@H](O)C4)cnc23)cccc1-c1cccc(-c2nc3cc(CN[C@H]4CC[C@@H](C(=O)O)C4)cc(C#N)c3o2)c1C
pIC50 [2]: > 8.00

CC(C)C[C@H](NC(=O)[C@H](CCC(N)=O)NC(=O)[C@H](C)NC(=O)[C@H](CCCNC(=N)N)NC(=O)[C@H](CCC(N)=O)NC(=O)[C@H](CO)NC(=O)[C@H](CC(N)=O)NC(=O)[C@H](Cc1ccc(O)cc1)NC(=O)[C@H](CC(=O)O)NC(=O)[C@H](Cc1c[nH]c2ccccc12)NC(=O)C(CC(N)=O)NC(=O)CN)C(=O)N[C@@H](Cc1ccc(O)cc1)C(=O)N[C@@H](CC(N)=O)C(=O)N[C@@H](CCC(N)=O)C(=O)O (stereo partly specified) (H-G[ξN]WDYNSQRAQLYNQ-OH)
pKd [3]: 5.86

CNCCOc1cccc(OC(=O)N(C)C)c1
inhibition [1]: 18.5%

C[C@@H](O)[C@H](N)C(=O)NNC(=O)[C@H](CC(N)=O)NC(=O)N[C@@H](CO)C(=O)O
pEC50 [4]: 7.57

Cc1c(-c2nc3c(o2)CN(C(=O)CN2CCC(O)CC2)C3)cccc1-c1cccc(-c2nc3cc(CN4CC[C@@](C)(C(=O)O)C4)cc(C#N)c3o2)c1C
pIC50 [2]: > 8.00

Cc1c(-c2ccc3c(c2)OCCO3)cccc1-c1nc2cc(CNCCO)cc(C)c2o1
pIC50 [2]: > 8.00

Cc1c(-c2ccccc2)cccc1-c1nc2cc(CNCCO)c(OCCN3CCOCC3)cc2o1
pIC50 [2]: > 8.00

Cc1nnc(NS(=O)(=O)c2ccc(N)cc2)s1
inhibition [1]: 29.3%

CC[C@H](C)[C@H](NC(=O)[C@H](CC(N)=O)NC(=O)CNC(=O)[C@H](Cc1cnc[nH]1)NC(=O)[C@H](CCCNC(=N)N)NC(=O)C(Cc1ccc(O)cc1)NC(=O)[C@H](CC(=O)O)NC(=O)[C@H](CCCCN)NC(=O)[C@H](CCC(=O)O)NC(=O)[C@@H](N)[C@@H](C)O)C(=O)N[C@@H](CCCNC(=N)N)C(=O)N[C@@H](CCSC)C(=O)N[C@@H](CCCCN)C(=O)N[C@@H](CC(C)C)C(=O)N[C@@H](C)C(=O)N[C@@H](Cc1ccc(O)cc1)C(=O)N[C@@H](CC(=O)O)C(=O)N[C@@H](CC(C)C)C(=O)O (stereo partly specified) (H-TEKD[ξY]RHGNIRMKLAYDL-OH)
pKd [3]: 5.50

COc1cc(NS(=O)(=O)c2ccc(N)cc2)ncn1
inhibition [1]: 10.2%

CC[C@H](C)[C@H](NC1CCC(=O)NCCCCC(C(=O)N[C@@H](CO)C(=O)NC(CCC(N)=O)C(=O)O)NC(=O)[C@H](CO)NC(=O)[C@H](CCSC)NC1=O)C(=O)O (stereo partly specified)
Activity [5]: 76%

C[C@@H](O)[C@@H]1NC(=O)C(N[C@@H](CO)C(=O)O)CCCCNC(=O)CCC(C(=O)N[C@@H](CO)C(=O)N[C@@H](Cc2ccccc2)C(N)=O)NC(=O)[C@H](CO)NC1=O (stereo partly specified)
Activity [5]: 84%

C[C@@H](O)[C@@H]1NC(=O)[C@H](CC(N)=O)NC(=O)C(CO)NNC(=O)C(CCC(N)=O)NC(=O)[C@H](Cc2ccccc2)NC(=O)[C@H](CO)NC(=O)[C@H](CCC(=O)O)NC(=O)[C@H](CO)NC1=O (stereo partly specified) (cyclo(ESF[ξQ][X1]NTS))
Activity [5]: 76%

H-LDYGDKREGQMAE-OH
pKd [3]: 4.67

N[C@@H](Cc1ccc(O)cc1)c1noc([C@@H]2CCCN2C(=O)N[C@@H](Cc2ccc(O)cc2)C(=O)O)n1
Activity [6]: 91%

C[C@H](O)[C@H](NC(=O)N[C@@H](Cc1ccccc1)c1nc([C@@H](N)CO)no1)C(=O)O
Activity [6]: 92%

CC(O)[C@H](NC(=O)N[C@@H](CC(N)=O)c1nnc([C@@H](N)CO)s1)C(=O)O (stereo partly specified)
pEC50 [4]: 7.47 | pEC50 [7]: 7.25 | pEC50 [8]: 6.83 | pEC50 [9]: 7.31 | pEC50 [10]: 7.26

Cc1c(-c2ccccc2)cccc1-c1nc2cc(CNCCO)ccc2o1
pIC50 [2]: > 8.00

CC(O)[C@H](NC(=O)N[C@@H](CCC(N)=O)c1nnc([C@@H](N)C(C)O)o1)C(=O)O (stereo partly specified)
Activity [6]: 97%

C[C@@H](O)[C@@H]1NC(=O)C(N[C@@H](CO)C(=O)O)CCC(=O)NCCCCC(C(=O)N[C@@H](CO)C(=O)N[C@@H](Cc2ccccc2)C(N)=O)NC(=O)[C@H](CO)NC1=O (stereo partly specified)
Activity [5]: 78%

CCN(Cc1ccccc1)C(=O)N[C@@H](CC(N)=O)c1nc([C@@H](N)CO)no1
Activity [6]: 92%

Cc1c(-c2ccc3c(c2)OCCO3)cccc1-c1nc2cc(CNCCO)c(OCC#N)cc2o1
pIC50 [2]: > 8.00

N[C@@H](Cc1c[nH]c2ccccc12)C(=O)N[C@@H](CC(=O)O)C(=O)N[C@@H](Cc1ccc(O)cc1)C(=O)N[C@@H](CC(=O)O)C(=O)O (H-WDYD-OH)
pKd [3]: 4.65

CC[C@H](C)[C@@H]1NC(=O)[C@H](CC(C)C)NC(=O)[C@H](Cc2ccccc2)NC(=O)CSC[C@@H](C(=O)NCC(N)=O)NC(=O)[C@H](CCCNC(=N)N)NC(=O)[C@H](Cc2ccccc2)NC(=O)[C@H](C(C)C)NC(=O)[C@H](CCCNC(=N)N)NC(=O)[C@H](CC(=O)O)NC(=O)[C@H](CCCNC(=N)N)NC(=O)[C@H]([C@@H](C)CC)NC(=O)[C@H](C(C)C)NC1=O ({CH2CO}-FLIVIRDRVFRCG-NH2; thioether N-12)
pEC50 [2]: 9.14

Cc1c(Nc2nccc3cc(CN[C@H](C)CO)cnc23)cccc1-c1cccc(-c2nc3cc(CN4CCC(C(=O)O)CC4)cc(C#N)c3o2)c1C
pIC50 [2]: > 8.00

C[C@H](O)[C@H](NC(=O)N[C@@H](CC(N)=O)C(=O)NNC(=O)[C@@H](N)CO)C(=O)O
Activity (CT26): 46% | pEC50 [4]: 7.52

C[C@H](O)[C@@H](N)C(=O)NNC(=O)[C@@H](CC(N)=O)NC(=O)N[C@H](CO)C(=O)O
pEC50 [4]: 7.40

C[C@@H](O)[C@H](NC(=O)[C@H](CO)NC(CCC(=O)NCCCCNC(=O)C(Cc1ccccc1)NC(=O)C(N)CO)C(N)=O)C(=O)N[C@@H](CC(N)=O)C(=O)N[C@@H](CO)C(=O)O (stereo partly specified)
Activity [5]: 87%

H-FNWDYSLEELREKAKYK-OH
pKd [3]: 5.50

H-GIDYEERWK-OH
pKd [3]: 4.55

H-LDYVNRRKMYQ-OH
pKd [3]: 5.48

C[C@@H](O)[C@H](N)c1noc([C@H](Cc2ccc(O)cc2)NC(=O)N2CCC[C@H]2C(=O)O)n1
Activity [6]: 99%

H-FNWDYSWKSERLKEAYDL-OH
pKd [3]: 3.47

CC[C@H](C)[C@H](NC1CCC(=O)NCCCCC(C(=O)N[C@@H](CO)C(=O)N[C@@H](Cc2ccccc2)C(N)=O)NC(=O)[C@H](CO)NC(=O)[C@H]([C@@H](C)O)NC1=O)C(=O)O (stereo partly specified)
Activity [5]: 76%
